Assay results taken from patent publication US7893082B2, “Substituted tetrahydroquinolines” (Merck Patent GmbH, priority 2005, dated 2011).

Tested on: cells
Assay: cell cycle effect (appended experiments)
Type: cell-based
Conditions: G2/M cell cycle

Q: `N=C(N)c1ccc(OCCCCCOc2ccc(C(=N)N)cc2)cc1` [pentamidine] was tested. Which “effect on cell cycle” value did it give?
A: maintain cells in the G2/M cell cycle
